According to patent US10174077B2, “Method of inhibiting activity of cell surface fibroblast activation protein alpha” (The Board of Regents of the University of Oklahoma, priority 2006, dated 2019):
Read-outs that look alike come from different tables or passages of the source. Where a SMILES comes first, the peptide text is derived from it. [ ]: non-standard residue; d: D form. Pip = O=C(O)[C@@H]1CCCCN1; AEEA = NCCOCCOCC(=O)O

Experiments:
DPPIV = DPPIV (Homo sapiens, UniProt P27487); test: DPPIV enzyme assay with fluorescent AMC substrates, inhibition constants; format: biochemical
Protocol: (§1) Fluorescence was monitored with time at excitation and emission wavelengths of 360 and 460 nm using a black-sided, 96-well plate in a BIO-TEK FL600 fluorescence plate reader. For standard curves, dilutions of AMC (7-amino-4-methylcoumarin) were prepared in the same assay buffer and corresponding fluorescence was measured. The substrates in five different concentrations were mixed with four different concentrations of inhibitors around the expected Ki values; the enzyme was added and enzymatically released AMC fluorescence was recorded. […] Therefore, enzyme kinetic parameters were computed by fitting data to the following equation, employing the program PRISM, GraphPad: […]

APCE = molecular target: T1, APCE (Homo sapiens, UniProt Q12884); test: APCE enzyme assay with fluorescent AMC substrates, competitive inhibition constants; format: biochemical; details: for Selectivity, Ki (DPPIV)/Ki (APCE/FAP): ratio of Ki values
T1 construct: APCE lacks the first 23 amino terminal residues of FAP; tissue Sylvan Goldman Blood Institute (source of the plasma); host or cells: human plasma
T1 sequence (Q12884 24-760 limits assumed): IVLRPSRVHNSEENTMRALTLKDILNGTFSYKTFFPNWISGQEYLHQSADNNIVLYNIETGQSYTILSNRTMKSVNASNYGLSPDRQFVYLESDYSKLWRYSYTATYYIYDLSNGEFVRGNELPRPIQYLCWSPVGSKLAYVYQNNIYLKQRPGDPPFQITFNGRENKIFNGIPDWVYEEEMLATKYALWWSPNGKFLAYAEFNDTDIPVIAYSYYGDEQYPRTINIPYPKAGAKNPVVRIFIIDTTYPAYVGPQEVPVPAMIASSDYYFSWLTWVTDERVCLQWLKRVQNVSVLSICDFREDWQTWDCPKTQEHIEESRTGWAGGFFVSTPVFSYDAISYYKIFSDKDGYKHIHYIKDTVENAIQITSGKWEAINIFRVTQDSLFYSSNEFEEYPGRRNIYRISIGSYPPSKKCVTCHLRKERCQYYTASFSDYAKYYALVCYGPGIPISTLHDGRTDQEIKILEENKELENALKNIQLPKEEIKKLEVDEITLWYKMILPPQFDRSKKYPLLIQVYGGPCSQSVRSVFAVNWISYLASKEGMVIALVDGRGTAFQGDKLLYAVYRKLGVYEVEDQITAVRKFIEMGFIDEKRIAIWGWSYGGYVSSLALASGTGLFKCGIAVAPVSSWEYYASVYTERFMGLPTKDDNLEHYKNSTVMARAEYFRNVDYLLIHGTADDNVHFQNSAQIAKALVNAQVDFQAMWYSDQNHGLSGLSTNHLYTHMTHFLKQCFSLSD
Protocol: as §1

[1] = molecular target: T2, cell surface FAP of W138 fibroblast cells (Homo sapiens, UniProt Q12884); test: Cell surface FAP activity of fibroblasts (cleavage of Ac-Arg-peg-Gly-Pro-AMC); format: cell-based
T2 construct: FAP proteolytic activity expressed on the surface of living fibroblast cells; endogenous in cells; host or cells: W138 (WI-38) fibroblasts
T2 sequence (Q12884 1-760): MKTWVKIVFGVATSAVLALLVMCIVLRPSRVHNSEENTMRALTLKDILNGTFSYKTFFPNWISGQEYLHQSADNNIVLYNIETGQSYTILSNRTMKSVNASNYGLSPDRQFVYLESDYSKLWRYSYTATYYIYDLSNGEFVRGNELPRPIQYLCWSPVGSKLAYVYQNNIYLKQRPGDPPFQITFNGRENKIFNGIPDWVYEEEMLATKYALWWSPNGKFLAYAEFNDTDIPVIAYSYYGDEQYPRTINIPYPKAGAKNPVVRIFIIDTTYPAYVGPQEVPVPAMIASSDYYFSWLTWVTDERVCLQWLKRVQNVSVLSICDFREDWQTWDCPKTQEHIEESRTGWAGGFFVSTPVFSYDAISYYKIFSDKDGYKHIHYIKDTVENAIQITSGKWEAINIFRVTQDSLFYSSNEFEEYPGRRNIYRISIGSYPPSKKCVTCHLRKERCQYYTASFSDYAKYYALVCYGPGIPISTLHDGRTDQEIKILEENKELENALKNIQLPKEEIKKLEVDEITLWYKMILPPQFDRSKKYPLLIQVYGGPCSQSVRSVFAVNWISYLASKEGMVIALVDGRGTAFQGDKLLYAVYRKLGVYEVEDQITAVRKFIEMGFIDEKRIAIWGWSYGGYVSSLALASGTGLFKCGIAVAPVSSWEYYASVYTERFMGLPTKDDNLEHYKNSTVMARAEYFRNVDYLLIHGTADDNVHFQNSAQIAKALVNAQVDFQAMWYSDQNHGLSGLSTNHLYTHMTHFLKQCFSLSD
Protocol: FIG. 6 is a graph showing cell surface FAP activity of fibroblasts. W138 Cells were seeded into opaque black 96 well cell culture plates and grown to confluency. Cells were washed with Hanks Balanced Salt Solution after which either the inhibitor compound Ac-Arg-(8-amino-3,6-dioxaoctanoyl)-D-Ala-L-boroPro, or buffer, was added. The FAP substrate, Ac—R-peg-G-P-AMC, was added and fluorescence was measured with time. The inhibitor was added to one set of cells 2 hours after substrate addition (see arrow). O.D. 360/460 was converted to APCE Units using a standard curve.
FIG. 6, for example, illustrates that FAP proteolytic activity expressed on the surface of living fibroblast cells can readily be inhibited by the inhibitor Ac-Arg-peg-D-Ala-boroPro (a.k.a. M83). We measured FAP activity by use of a synthetic substrate, Ac-Arg-peg-Gly-Pro-amidomethyl coumarin, which produces fluorescence upon cleavage of the bond between proline and the amidomethylcoumarin by FAP. In these experiments we made a treatment and then measured any fluorescence generated over several hours. The figure compares three treatments: • (1) “Control”: This curve represents addition of the substrate to live cells bathed in culture media with no other treatment. The synthetic substrate cleavage is observed as reflected by measurement of the fluorescence generated that is expressed as APCE Units.

[2] = molecular target: T3, cell surface FAP of MDA-MB-435 breast cancer cells (Homo sapiens, UniProt Q12884); test: Cell surface FAP activity of breast cancer cells (cleavage of Ac-Arg-peg-Gly-Pro-AMC); format: cell-based; details: live MDA-MB-435 breast cancer cells, inhibitor added with substrate
T3 construct: cultured breast cancer cells also have FAP activity on their cell surface; endogenous in cells; host or cells: MDA-MB-435 cells
T3 sequence (Q12884 1-760): T2 sequence (Q12884 1-760)
Protocol: FIG. 7 is a graph showing cell surface FAP activity of breast cancer cells. MDA-MB-435 cells were seeded into opaque black 96 well cell culture plates and grown to confluency. Cells were washed with Hanks Balanced Salt solution after which either the inhibitor compound Ac-Arg-(8-amino-3,6-dioxaoctanoyl)-D-Ala-L-boroPro, or buffer, was added. The FAP substrate, Ac—R-peg-G-P-AMC, was added and fluorescence measured with time. O.D. 360/460 was converted to APCE Units using a standard curve.
In FIG. 7, the experiment was performed in exactly the same way as for FIG. 6, except live breast cancer cells were used.

[3] = best-fit value ± standard error, read-out: Ki, inhibition of APCE activity

Sequence of DPPIV (P27487 whole entry, species assumed): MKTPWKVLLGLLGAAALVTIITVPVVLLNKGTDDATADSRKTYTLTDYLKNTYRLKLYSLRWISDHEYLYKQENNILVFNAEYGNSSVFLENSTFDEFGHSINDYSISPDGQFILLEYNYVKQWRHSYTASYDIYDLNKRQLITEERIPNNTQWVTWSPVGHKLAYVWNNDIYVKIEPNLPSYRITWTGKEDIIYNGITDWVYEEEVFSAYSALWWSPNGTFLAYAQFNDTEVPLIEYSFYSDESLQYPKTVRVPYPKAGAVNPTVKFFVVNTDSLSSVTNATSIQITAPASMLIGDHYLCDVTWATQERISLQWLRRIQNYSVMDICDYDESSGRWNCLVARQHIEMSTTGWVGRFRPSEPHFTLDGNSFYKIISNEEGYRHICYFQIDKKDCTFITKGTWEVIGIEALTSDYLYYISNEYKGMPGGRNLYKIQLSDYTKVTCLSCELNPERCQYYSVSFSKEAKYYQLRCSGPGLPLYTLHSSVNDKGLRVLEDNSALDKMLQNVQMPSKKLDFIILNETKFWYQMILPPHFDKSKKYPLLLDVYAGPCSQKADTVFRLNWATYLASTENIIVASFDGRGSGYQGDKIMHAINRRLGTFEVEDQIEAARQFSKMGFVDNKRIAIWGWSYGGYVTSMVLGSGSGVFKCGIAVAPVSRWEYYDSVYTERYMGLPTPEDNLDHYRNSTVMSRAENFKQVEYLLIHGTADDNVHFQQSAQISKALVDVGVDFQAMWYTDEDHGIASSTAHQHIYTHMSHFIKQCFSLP

Row | Compound | Ki (DPPIV) [µM] | Selectivity, Ki (DPPIV)/Ki (APCE/FAP) (APCE) | Ki (APCE; read-out: APCE/FAP Ki) [µM] | Ki (APCE; [3]) [µM] | further results
1 | CC(=O)N[C@@H](CCCNC(=N)N)C(=O)NCCOCCOCC(=O)N[C@@H](CO)C(=O)NCC(=O)N1CCC[C@H]1B(O)O [Ac-Arg-peg-Ser-Gly-L-boroPro] |  | 319 |  |  | 
2 | CC(=O)NC(CCCNC(=N)N)C(=O)NCCOCCOCC(=O)NC(C)C(=O)N1CCCC1B(O)O (single isomer, unassigned) [Ac-Arg-peg-D-Ala-L-boroPro, acetyl-arg-8-amino-3,6-dioxaoctanoic acid-D-ala-L-boroPro] | 6.13 | 1075 | 0.0057 |  | Cell surface FAP activity (substrate hydrolysis, fluorescence as APCE Units) ([1]; 10 uM inhibitor added to fibroblasts 2 hrs after substrate, listed as Ac-Arg-(8-amino-3,6-dioxaoctanoyl)-D-Ala-L-boroPro): inhibited cell surface FAP immediately; Cell surface FAP activity (substrate hydrolysis, fluorescence as APCE Units) ([1]; 10 uM inhibitor added to fibroblasts 2 hrs after substrate, listed as M83): immediately and completely arrested; Cell surface FAP activity (substrate hydrolysis, fluorescence as APCE Units) ([1]; 10 uM inhibitor added to live fibroblasts simultaneously with substrate, followed 5 hours): no substrate hydrolysis occurs; Cell surface FAP activity (substrate hydrolysis, fluorescence as APCE Units) [2]: completely inhibited
3 | N=C(N)NCCC[C@H](NC(=O)[C@@H](N)Cc1ccccc1)C(=O)NCCOCCOCC(=O)NCC(=O)N1CCCC[C@H]1C(N)=O [Inhibitor (11), FR-peg-G-pipecolinamide] (H-FR[AEEA]G[Pip]-NH2) |  |  |  | > 1000 | 
4 | CC(=O)NC(CCCNC(=N)N)C(=O)NCCOCCOCC(=O)NC(C)C(=O)N1CCCC1B(O)O [Ac-Arg-peg-D-Ala-DL(50:50%)-boroPro] | 11.2 | 1176 | 0.0095 |  | 
5 | CC(=O)N[C@@H](CCCNC(=N)N)C(=O)NCC(=O)NCC(=O)N1CCC[C@H]1B(O)O [Ac-Arg-Gly-Gly-L-boroPro] | 0.322 | 18.7 | 0.0172 |  | 
6 | CC(=O)N[C@@H](CCCNC(=N)N)C(=O)NCCOCCOCC(=O)NCC(=O)N1CCC[C@H]1B(O)O [Ac-Arg-peg-Gly-L-boroPro] | 0.44 | 244 | 0.0018 |  | 
7 | FG-peg-G-pyrrolidide [Inhibitor (6)] |  |  |  | 703 ± 68 | 

The next lines start with results.

Row | Ki (DPPIV) [µM] | Selectivity, Ki (DPPIV)/Ki (APCE/FAP) (APCE) | Ki (APCE; read-out: APCE/FAP Ki) [µM] | Ki (APCE; [3]) [µM] | Compound | further results
8 | 7.13 | 5.2 | 1.38 |  | CC(=O)N[C@@H](CCCNC(=N)N)C(=O)NCCOCCOCC(=O)N[C@H](CC(=O)O)C(=O)N1CCC[C@H]1B(O)O [Ac-Arg-peg-D-Asp-L-boroPro] | 
9 |  |  |  | 67.7 ± 5.8 | FR-peg-G-pyrrolidide [Inhibitor (5)] | 
10 | 0.341 | 14.9 | 0.0229 |  | CC(=O)NC(CCCNC(=N)N)C(=O)NCC(=O)NCC(=O)N1CCCC1B(O)O (racemic) [Ac-Arg-Gly-Gly-DL-boroPro] | 
11 |  | 108 |  |  | CC(=O)NC(CCCNC(=N)N)C(=O)NCCOCCOCC(=O)NC(C)C(=O)N1CCCC1B(O)O (single isomer, unassigned) [Ac-Arg-peg-D-Ala-D-boroPro] | 
12 | 1.15 | 371 | 0.0031 |  | CC(=O)NC(CCCNC(=N)N)C(=O)NCCOCCOCC(=O)NCC(=O)N1CCCC1B(O)O (racemic) [Ac-Arg-peg-Gly-DL-boroPro] | 
13 |  |  |  | 55.3 ± 5.3 | FR-peg-G-[s]fluoropyrrolidide [Inhibitor (9)] | 
14 |  |  | 0.0183 |  | Ac-Arg-peg-D-Ala-DL(75:25%)-boroPro | 
15 |  |  |  | 53.8 ± 4.9 | FR-peg-G-[r]fluoropyrrolidide [Inhibitor (8)] | 
16 |  |  | 0.0077 |  | Ac-Arg-peg-D-Ala-DL(25:75%)-boroPro | 
